This note sets out measurements from patent US20160158200A1, “Combinations of Hepatitis C Virus Inhibitors” (priority 2013, published 2016).

This assay concerns HCV genotype-1a variant with glutamine 30 changed to glutamate in the NS5A protein. The class given is cell-based. The note with it: test compound titrated with BMS-790052 fixed at 200 nM; genotype 1a Q30E replicon. The essentials: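 Synergy was assessed by combining several fixed amounts of an NS5A-targeting compound with a titration of the second compound of interest.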
Background: Replicon systems follow genome replication, usually without infectious particles.

For the compound `CC(C)(C)[C@H](NS(=O)(=O)C1(C)CC1)c1nc(-c2ccc(-c3ccc(-c4c[nH]c([C@@H](NS(=O)(=O)C5(C)CC5)C(C)(C)C)n4)cc3)cc2)c[nH]1` [Compound L-120], the “Fold-Synergistic 1a (Q30E)” value is >100 fold.
For `CCN(CC)S(=O)(=O)NC(c1nc(-c2ccc(-c3ccc(-c4c[nH]c(C(NS(=O)(=O)N(CC)CC)C(C)(C)C)n4)cc3)cc2)c[nH]1)C(C)(C)C` [Compound L-121] the value was >100 fold.
For `COCC(C)(COC)C(=O)NC(c1nc(-c2ccc(-c3ccc(-c4c[nH]c(C(NC(=O)C(C)(COC)COC)C(C)(C)C)n4)cc3)cc2)c[nH]1)C(C)(C)C` [Compound L-123] the value was >100 fold.
For `CC(C)(C)[C@H](NC(=O)C1(COCc2ccccc2)COC1)c1nc(-c2ccc(-c3ccc(-c4c[nH]c([C@@H](NC(=O)C5(COCc6ccccc6)COC5)C(C)(C)C)n4)cc3)cc2)c[nH]1` [Compound L-124] the value was >100 fold; for `CC(C)(C)[C@H](NC(=O)C1(CO)COC1)c1nc(-c2ccc(-c3ccc(-c4c[nH]c([C@@H](NC(=O)C5(CO)COC5)C(C)(C)C)n4)cc3)cc2)c[nH]1` [Compound L-125], >100 fold.
As to `CC(C)(C)[C@H](NC(=O)C1(C(F)(F)F)CCC1)c1nc(-c2ccc(-c3ccc(-c4c[nH]c([C@@H](NC(=O)C5(C(F)(F)F)CCC5)C(C)(C)C)n4)cc3)cc2)c[nH]1` [Compound L-129], the “Fold-Synergistic 1a (Q30E)” value is >100 fold.
Take `O=C(C(=O)N1C[C@H](O)C[C@H]1c1nc(-c2ccc(-c3ccc(-c4c[nH]c([C@@H]5C[C@@H](O)CN5C(=O)C(=O)N5CCC(F)(F)CC5)n4)cc3)cc2)c[nH]1)N1CCC(F)(F)CC1` [Compound L-142]: the “Fold-Synergistic 1a (Q30E)” value was >100 fold.
For `C[C@H]1C[C@@H](c2nc(-c3ccc(-c4ccc(-c5c[nH]c([C@@H]6C[C@H](C)CN6C(=O)C(=O)N6CCC(F)(F)CC6)n5)cc4)cc3)c[nH]2)N(C(=O)C(=O)N2CCC(F)(F)CC2)C1` [Compound L-143] the value was >100 fold; for `CC(C)(NC(=O)CC(F)(F)F)C(=O)N[C@H](c1nc(-c2ccc(-c3ccc(-c4c[nH]c([C@@H](NC(=O)C(C)(C)NC(=O)CC(F)(F)F)C(C)(C)C)n4)cc3)cc2)c[nH]1)C(C)(C)C` [Compound L-144], >100 fold; for `CC(C)[C@H](NC(=O)C(C)(C)C)c1ncc(-c2ccc(-c3ccc(-c4cnc([C@@H](NC(=O)C(C)(C)C)C(C)C)o4)cc3)cc2)o1` [Compound N-2], >100 fold.
Consider `CC(C)CC(=O)N[C@H](c1ncc(-c2ccc(C#Cc3ccc(-c4cnc([C@@H](NC(=O)CC(C)C)C(C)(C)C)[nH]4)cc3)cc2)[nH]1)C(C)(C)C` [Compound N-3], for which the “Fold-Synergistic 1a (Q30E)” value is recorded as >10 fold.
For `COC(=O)N[C@H](C(=O)NC1(c2nc(-c3ccc(-c4ccc(-c5c[nH]c(C6(NC(=O)[C@@H](NC(=O)OC)C(C)C)CCC6)n5)cc4)cc3)c[nH]2)CCC1)C(C)C` [Compound N-10] the value was <10 fold; for `CC(C)CC(=O)NC1(c2ncc(-c3ccc(-c4ccc(-c5cnc(C6(NC(=O)CC(C)C)CCC6)[nH]5)cc4)cc3)[nH]2)CCC1.O=C(O)C(F)(F)F.O=C(O)C(F)(F)F` [Compound N-11], <10 fold.
For `CC(C)CC(=O)NC1(c2ncc(-c3ccc(-c4ccc(-c5cnc(C6(NC(=O)CC(C)C)CCCC6)[nH]5)cc4)cc3)[nH]2)CCCC1.O=C(O)C(F)(F)F.O=C(O)C(F)(F)F` [Compound N-12] the value was <10 fold.
In the case of `CC(C)CC(=O)NC1(c2ncc(-c3ccc(-c4ccc(-c5cnc(C6(NC(=O)CC(C)C)CC=CC6)[nH]5)cc4)cc3)[nH]2)CC=CC1.O=C(O)C(F)(F)F.O=C(O)C(F)(F)F` [Compound N-16] it was <10 fold.
For the compound `CC(C)CC(=O)NC1(c2ncc(-c3ccc(-c4ccc(-c5cnc(C6(NC(=O)CC(C)C)Cc7ccccc7C6)[nH]5)cc4)cc3)[nH]2)Cc2ccccc2C1.O=C(O)C(F)(F)F.O=C(O)C(F)(F)F` [Compound N-19], the “Fold-Synergistic 1a (Q30E)” value is <10 fold.
For `CC(C)CC(=O)NC1(c2ncc(-c3ccc(-c4ccc(-c5cnc(C6(NC(=O)CC(C)C)CC6)[nH]5)cc4)cc3)[nH]2)CC1.O=C(O)C(F)(F)F.O=C(O)C(F)(F)F` [Compound N-21] the value was <10 fold; for `CC(C)CC(=O)NC1(c2ncc(-c3ccc(-c4ccc(-c5cnc(C6(NC(=O)CC(C)C)CCCCC6)[nH]5)cc4)cc3)[nH]2)CCCCC1.O=C(O)C(F)(F)F.O=C(O)C(F)(F)F` [Compound N-24], <10 fold; for `CC(C)CC(=O)NC(C)(C)c1ncc(-c2ccc(-c3ccc(-c4cnc(C(C)(C)NC(=O)CC(C)C)[nH]4)cc3)cc2)[nH]1.O=C(O)C(F)(F)F.O=C(O)C(F)(F)F` [Compound N-26], <10 fold.
In the case of `COC(=O)N[C@@H](C(=O)N[C@H](c1nc(-c2ccc(-c3ccc(-c4c[nH]c([C@@H](NC(=O)[C@H](NC(=O)OC)C(C)C)C(C)(C)C)n4)cc3)cc2)c[nH]1)C(C)(C)C)C(C)C` [Compound N-28] it was >100 fold; in that of `CC(C)(C)[C@H](NC(=O)C1CC1(F)F)c1nc(-c2ccc(-c3ccc(-c4c[nH]c([C@@H](NC(=O)C5CC5(F)F)C(C)(C)C)n4)cc3)cc2)c[nH]1` (stereo partly drawn) [Compound N-45a], >100 fold.
For `CC(C)(C)C(=O)N[C@H](c1nc(-c2ccc(-c3ccc(-c4c[nH]c([C@@H](NC(=O)C(C)(C)C)C(C)(C)C)n4)cc3)cc2)c[nH]1)C(C)(C)C` [Compound N-46] the value was >100 fold; for `CC(C)(C)[C@H](NC(=O)C1CCC(F)(F)CC1)c1nc(-c2ccc(-c3ccc(-c4c[nH]c([C@@H](NC(=O)C5CCC(F)(F)CC5)C(C)(C)C)n4)cc3)cc2)c[nH]1` [Compound N-47], >100 fold.
On to `CC(C)(C)[C@H](NC(=O)Cc1ccccc1F)c1nc(-c2ccc(-c3ccc(-c4c[nH]c([C@@H](NC(=O)Cc5ccccc5F)C(C)(C)C)n4)cc3)cc2)c[nH]1` [Compound N-48], for which the “Fold-Synergistic 1a (Q30E)” value is on record as >100 fold.
For `CC(C)(C)[C@H](NC(=O)Cc1ccc(F)cc1)c1nc(-c2ccc(-c3ccc(-c4c[nH]c([C@@H](NC(=O)Cc5ccc(F)cc5)C(C)(C)C)n4)cc3)cc2)c[nH]1` [Compound N-49] the value was >100 fold.
Regarding `CC(C)(C)[C@H](NC(=O)CC1CCCCC1)c1nc(-c2ccc(-c3ccc(-c4c[nH]c([C@@H](NC(=O)CC5CCCCC5)C(C)(C)C)n4)cc3)cc2)c[nH]1` [Compound N-50], the “Fold-Synergistic 1a (Q30E)” value was >100 fold.
`CC(C)(C)[C@H](NC(=O)c1ccc(F)c(F)c1)c1nc(-c2ccc(-c3ccc(-c4c[nH]c([C@@H](NC(=O)c5ccc(F)c(F)c5)C(C)(C)C)n4)cc3)cc2)c[nH]1` [Compound N-51]: the “Fold-Synergistic 1a (Q30E)” value is listed as >100 fold.
For `CC(C)(C)[C@H](NC(=O)C1(C(F)(F)F)CCCC1)c1nc(-c2ccc(-c3ccc(-c4c[nH]c([C@@H](NC(=O)C5(C(F)(F)F)CCCC5)C(C)(C)C)n4)cc3)cc2)c[nH]1` [Compound N-52] the value was >100 fold; for `CC(C)(C)[C@H](NC(=O)c1ccc(Cl)cn1)c1nc(-c2ccc(-c3ccc(-c4c[nH]c([C@@H](NC(=O)c5ccc(Cl)cn5)C(C)(C)C)n4)cc3)cc2)c[nH]1` [Compound N-53], >100 fold; for `COc1ccc(C(=O)N[C@H](c2nc(-c3ccc(-c4ccc(-c5c[nH]c([C@@H](NC(=O)c6ccc(OC)cc6)C(C)(C)C)n5)cc4)cc3)c[nH]2)C(C)(C)C)cc1` [Compound N-54], >100 fold.
For `CC(C)(C)[C@H](NC(=O)C1C(C)(C)C1(C)C)c1nc(-c2ccc(-c3ccc(-c4c[nH]c([C@@H](NC(=O)C5C(C)(C)C5(C)C)C(C)(C)C)n4)cc3)cc2)c[nH]1` [Compound N-55] the value was >100 fold; for `CC(C)(C)[C@H](NC(=O)C1(c2ccc(Cl)cc2)CC1)c1nc(-c2ccc(-c3ccc(-c4c[nH]c([C@@H](NC(=O)C5(c6ccc(Cl)cc6)CC5)C(C)(C)C)n4)cc3)cc2)c[nH]1` [Compound N-56], >100 fold; for `CC(C)(C)[C@H](NC(=O)C1(c2ccc(Cl)cc2)CCC1)c1nc(-c2ccc(-c3ccc(-c4c[nH]c([C@@H](NC(=O)C5(c6ccc(Cl)cc6)CCC5)C(C)(C)C)n4)cc3)cc2)c[nH]1` [Compound N-57], >100 fold.
As for `CC(C)(C)CCC(=O)N[C@H](c1nc(-c2ccc(-c3ccc(-c4c[nH]c([C@@H](NC(=O)CCC(C)(C)C)C(C)(C)C)n4)cc3)cc2)c[nH]1)C(C)(C)C` [Compound N-58], the “Fold-Synergistic 1a (Q30E)” value is on record as >100 fold.
In the case of `COCC1(C(=O)N[C@H](c2nc(-c3ccc(-c4ccc(-c5c[nH]c([C@@H](NC(=O)C6(COC)CCC6)C(C)(C)C)n5)cc4)cc3)c[nH]2)C(C)(C)C)CCC1` [Compound N-59] it was >100 fold.
For `C[C@H](C(=O)N[C@H](c1nc(-c2ccc(-c3ccc(-c4c[nH]c([C@@H](NC(=O)[C@@H](C)c5ccccc5)C(C)(C)C)n4)cc3)cc2)c[nH]1)C(C)(C)C)c1ccccc1` [Compound N-60] the value was >100 fold; for `C[C@@H](C(=O)N[C@H](c1nc(-c2ccc(-c3ccc(-c4c[nH]c([C@@H](NC(=O)[C@H](C)c5ccccc5)C(C)(C)C)n4)cc3)cc2)c[nH]1)C(C)(C)C)c1ccccc1` [Compound N-61], >100 fold.
For `CC(C)(C)[C@H](NC(=O)CC12CC3CC(CC(C3)C1)C2)c1nc(-c2ccc(-c3ccc(-c4c[nH]c([C@@H](NC(=O)CC56CC7CC(CC(C7)C5)C6)C(C)(C)C)n4)cc3)cc2)c[nH]1` [Compound N-63] the value was >100 fold; for `Cc1ccc(C(=O)N[C@H](c2nc(-c3ccc(-c4ccc(-c5c[nH]c([C@@H](NC(=O)c6ccc(C)s6)C(C)(C)C)n5)cc4)cc3)c[nH]2)C(C)(C)C)s1` [Compound N-64], >100 fold.
